“And” between values parts separate entries of the source, which are not always exact repeats. Equal entries are not always repeated.
Assays:
ClpP1P2 = ClpP1P2 (Mycobacterium tuberculosis (strain ATCC 25618 / H37Rv), UniProt P9WPC3+P9WPC5); test: in vitro assay to detect presence of AMC directly proportional to the activity of ClpP1P2. GHDDI collaboration.; assay type: functional
Lysine--tRNA ligase = Lysine--tRNA ligase (Plasmodium falciparum (isolate 3D7), UniProt Q8IDJ8); test: Pf-KRS-1 (Lysyl-RNA Synthetase-1, KRS-1, cytosolic KRS) from Plasmodium falciparum. Inhibitor assay, 384 well plate, luminescence read.; assay type: functional
[1] = biological target: Polyketide synthase Pks13 (Mycobacterium tuberculosis (strain ATCC 25618 / H37Rv), UniProt I6X8D2); test: Mycobacterium tuberculosis Polyketide synthase 13 Thioesterase (PKS13); assay type: functional
[2] = biological target: T1, Coenzyme A biosynthesis bifunctional protein CoaBC (Mycobacterium tuberculosis (strain ATCC 25618 / H37Rv), UniProt P9WNZ1); test: Biomol Green assay for MtCoaBC inhibitor, OD650 read; assay type: functional
T1 sequence (P9WNZ1 whole entry): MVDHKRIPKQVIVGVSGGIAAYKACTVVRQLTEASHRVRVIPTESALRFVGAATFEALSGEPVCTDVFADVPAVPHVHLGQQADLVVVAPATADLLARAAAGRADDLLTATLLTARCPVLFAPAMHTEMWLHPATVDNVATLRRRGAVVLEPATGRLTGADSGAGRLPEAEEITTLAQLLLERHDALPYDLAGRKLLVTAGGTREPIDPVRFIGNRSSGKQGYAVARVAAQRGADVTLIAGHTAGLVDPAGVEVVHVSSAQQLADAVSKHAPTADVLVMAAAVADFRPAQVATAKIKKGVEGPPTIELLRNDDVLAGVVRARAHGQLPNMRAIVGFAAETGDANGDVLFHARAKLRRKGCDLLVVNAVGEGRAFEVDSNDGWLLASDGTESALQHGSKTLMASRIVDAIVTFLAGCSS

Histidine--tRNA ligase = biological target: T2, Histidine--tRNA ligase (Leishmania infantum, UniProt A4I591); test: Leishmania infantum Histidine tRNA synthetase (LdHisRS); assay type: functional
T2 sequence (A4I591 whole entry): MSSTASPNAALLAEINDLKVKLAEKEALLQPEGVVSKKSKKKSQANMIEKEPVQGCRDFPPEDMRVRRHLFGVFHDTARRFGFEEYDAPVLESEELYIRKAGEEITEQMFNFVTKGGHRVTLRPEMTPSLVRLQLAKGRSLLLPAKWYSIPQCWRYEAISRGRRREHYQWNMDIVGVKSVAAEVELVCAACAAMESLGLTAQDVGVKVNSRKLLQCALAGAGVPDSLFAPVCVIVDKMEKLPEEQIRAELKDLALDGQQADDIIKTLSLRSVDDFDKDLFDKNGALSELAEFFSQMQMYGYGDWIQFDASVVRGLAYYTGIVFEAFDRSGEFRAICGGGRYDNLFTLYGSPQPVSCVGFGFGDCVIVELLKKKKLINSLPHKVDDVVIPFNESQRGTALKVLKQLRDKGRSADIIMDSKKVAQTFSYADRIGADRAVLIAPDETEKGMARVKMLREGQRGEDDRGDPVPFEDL

Wolbachia pipientis = test: Anti-Wolbachia Cell-Based Screen; assay type: functional; details: for IC50: Wolbachia pipientis
[3] = In vitro enzyme assay to detect hydrolysis of chlorophenol red-beta-D-[…] directly proportional to the number of Toxoplasma stably expressing beta-galactosidase; assay type: functional, organism-based, Toxoplasma gondii; details: for IC50: Toxoplasma gondii
Tryptophan--tRNA ligase = Tryptophan--tRNA ligase (Mycobacterium tuberculosis (strain ATCC 25618 / H37Rv), UniProt P9WFT3); test: Biochemical assay for Mt-TrpRS; assay type: functional
Leishmania donovani = test: Leishmania intramacrophage assay; assay type: functional, organism-based; details: Leishmania donovani
[4] = microbe, parasite or virus in culture; details: Mycobacterium tuberculosis, 72 h, read-out: pIC50 (converted)
[5] = microbe, parasite or virus in culture; details: Mycobacterium tuberculosis, 96 h, read-out: pIC50 (converted)

Polyketide synthase Pks13, sequence (I6X8D2 whole entry): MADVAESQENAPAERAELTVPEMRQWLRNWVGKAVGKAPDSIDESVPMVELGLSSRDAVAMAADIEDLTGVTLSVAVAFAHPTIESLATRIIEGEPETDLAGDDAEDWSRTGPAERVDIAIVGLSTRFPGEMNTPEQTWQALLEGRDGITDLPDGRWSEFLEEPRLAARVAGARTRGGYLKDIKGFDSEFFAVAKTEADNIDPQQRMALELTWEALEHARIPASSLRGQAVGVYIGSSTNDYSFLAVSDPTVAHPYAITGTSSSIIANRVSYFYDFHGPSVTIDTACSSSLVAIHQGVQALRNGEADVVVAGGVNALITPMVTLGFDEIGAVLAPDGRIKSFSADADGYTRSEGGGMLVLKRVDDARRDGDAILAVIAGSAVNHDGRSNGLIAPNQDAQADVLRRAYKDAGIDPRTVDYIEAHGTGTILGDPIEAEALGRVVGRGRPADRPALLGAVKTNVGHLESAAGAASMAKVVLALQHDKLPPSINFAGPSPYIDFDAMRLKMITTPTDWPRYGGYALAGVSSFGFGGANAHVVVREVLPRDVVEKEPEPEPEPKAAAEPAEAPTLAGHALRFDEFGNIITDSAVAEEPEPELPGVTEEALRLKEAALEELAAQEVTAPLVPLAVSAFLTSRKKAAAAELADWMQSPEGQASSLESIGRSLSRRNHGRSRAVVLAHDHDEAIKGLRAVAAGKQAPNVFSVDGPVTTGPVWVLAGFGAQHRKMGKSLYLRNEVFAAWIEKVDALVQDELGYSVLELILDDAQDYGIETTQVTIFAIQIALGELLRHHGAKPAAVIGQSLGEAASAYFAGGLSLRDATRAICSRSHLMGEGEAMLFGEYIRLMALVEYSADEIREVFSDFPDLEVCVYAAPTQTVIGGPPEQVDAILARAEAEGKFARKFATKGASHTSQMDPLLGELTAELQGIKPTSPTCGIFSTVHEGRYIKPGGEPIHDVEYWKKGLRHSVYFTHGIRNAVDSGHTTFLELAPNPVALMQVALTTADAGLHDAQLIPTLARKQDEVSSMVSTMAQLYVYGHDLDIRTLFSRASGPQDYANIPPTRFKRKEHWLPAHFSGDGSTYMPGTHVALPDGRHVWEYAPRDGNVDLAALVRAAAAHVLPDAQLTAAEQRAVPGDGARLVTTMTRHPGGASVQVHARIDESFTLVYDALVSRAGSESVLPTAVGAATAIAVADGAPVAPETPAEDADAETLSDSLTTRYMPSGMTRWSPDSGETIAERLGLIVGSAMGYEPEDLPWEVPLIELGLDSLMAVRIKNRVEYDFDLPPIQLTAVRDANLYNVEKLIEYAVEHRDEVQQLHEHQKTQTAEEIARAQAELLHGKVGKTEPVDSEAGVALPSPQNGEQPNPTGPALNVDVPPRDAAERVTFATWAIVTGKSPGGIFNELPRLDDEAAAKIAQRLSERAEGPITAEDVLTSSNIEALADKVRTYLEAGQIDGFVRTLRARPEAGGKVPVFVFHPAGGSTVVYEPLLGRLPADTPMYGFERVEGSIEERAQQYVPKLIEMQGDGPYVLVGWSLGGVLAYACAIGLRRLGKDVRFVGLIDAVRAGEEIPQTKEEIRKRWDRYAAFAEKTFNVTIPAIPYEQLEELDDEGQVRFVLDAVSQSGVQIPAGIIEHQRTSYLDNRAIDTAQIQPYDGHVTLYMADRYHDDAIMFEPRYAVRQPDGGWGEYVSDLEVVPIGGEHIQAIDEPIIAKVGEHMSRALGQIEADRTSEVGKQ
ClpP1P2, sequence (P9WPC5 whole entry): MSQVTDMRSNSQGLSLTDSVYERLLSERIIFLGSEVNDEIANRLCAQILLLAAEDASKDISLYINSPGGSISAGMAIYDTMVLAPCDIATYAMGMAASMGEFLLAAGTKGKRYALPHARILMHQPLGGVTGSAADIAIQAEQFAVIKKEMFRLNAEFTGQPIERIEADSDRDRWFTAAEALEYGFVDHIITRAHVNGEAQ
ClpP1P2, sequence (P9WPC3 whole entry): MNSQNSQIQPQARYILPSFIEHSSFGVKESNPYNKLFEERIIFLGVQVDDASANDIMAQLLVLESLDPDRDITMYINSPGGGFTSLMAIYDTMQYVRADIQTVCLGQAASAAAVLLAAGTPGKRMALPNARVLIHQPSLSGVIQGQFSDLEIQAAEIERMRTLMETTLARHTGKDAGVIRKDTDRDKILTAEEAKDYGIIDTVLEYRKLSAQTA
Tryptophan--tRNA ligase, sequence (P9WFT3 whole entry): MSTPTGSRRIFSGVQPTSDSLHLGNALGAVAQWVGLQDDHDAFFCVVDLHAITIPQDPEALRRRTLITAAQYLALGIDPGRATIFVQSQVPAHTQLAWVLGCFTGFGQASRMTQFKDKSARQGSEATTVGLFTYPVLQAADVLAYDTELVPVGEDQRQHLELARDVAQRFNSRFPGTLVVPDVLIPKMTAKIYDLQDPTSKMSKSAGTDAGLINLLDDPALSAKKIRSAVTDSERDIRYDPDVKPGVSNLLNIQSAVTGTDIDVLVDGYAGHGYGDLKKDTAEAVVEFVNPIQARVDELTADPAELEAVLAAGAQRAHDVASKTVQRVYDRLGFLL
Lysine--tRNA ligase, sequence (Q8IDJ8 whole entry): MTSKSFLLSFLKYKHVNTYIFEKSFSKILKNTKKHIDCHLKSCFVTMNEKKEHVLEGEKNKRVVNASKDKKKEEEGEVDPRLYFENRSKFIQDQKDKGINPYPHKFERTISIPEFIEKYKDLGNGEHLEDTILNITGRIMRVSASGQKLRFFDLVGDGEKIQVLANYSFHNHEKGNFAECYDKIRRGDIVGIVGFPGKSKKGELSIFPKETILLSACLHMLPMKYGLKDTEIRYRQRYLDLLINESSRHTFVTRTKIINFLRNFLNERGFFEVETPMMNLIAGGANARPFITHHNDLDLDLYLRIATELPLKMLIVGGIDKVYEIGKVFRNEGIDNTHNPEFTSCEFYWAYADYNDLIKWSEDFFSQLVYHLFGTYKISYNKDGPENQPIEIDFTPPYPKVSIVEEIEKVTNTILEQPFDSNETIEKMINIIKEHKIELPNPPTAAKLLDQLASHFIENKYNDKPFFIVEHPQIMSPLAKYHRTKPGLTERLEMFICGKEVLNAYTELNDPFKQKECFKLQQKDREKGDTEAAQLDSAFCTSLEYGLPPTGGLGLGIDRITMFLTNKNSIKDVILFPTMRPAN

Structure (SMILES)	IC50 [1]	pIC50 (Wolbachia pipientis)	IC50 (Wolbachia pipientis) [µM]	further results
Cc1ccc2[nH]c(CO[C@H]3CN(c4ccc(C#N)cn4)C[C@H]3F)nc2c1	26.6 µM			IC50 (ClpP1P2): 7.25 µM; IC50 (Lysine--tRNA ligase): > 50.1 µM; IC50 [2]: > 50.1 µM; IC50 (Histidine--tRNA ligase): 27.1 µM and 37.7 µM
c1ccc(O[C@H]2COCCN(Cc3c[nH]c4ccccc34)C2)cc1		5.37	6.98	
COCC(=O)Nc1ccc(-c2noc([C@@H]3CCCN3C(C)C)n2)cn1		5.079	8.83	
CC(C)N1c2sc(-c3ccsc3)nc2CC1C(=O)NC1CCCC1 (stereo not given)		5.095	7.14	
Cn1c(=O)n(C)c2cc(C3SCC(=O)Nc4ccsc43)ccc21 (stereo not given)		5.481	2.44	
O=C(c1ccc(COc2ccc(Cl)cc2)o1)N1N=CCC1(O)C(F)(F)F (stereo not given)	17.3 µM and 24.2 µM			pIC50 [3]: 5.524; IC50 [3]: 3.1 µM
CCCn1c(N2CCCC2)nc2c(C)nn(C)c2c1=O	> 100 µM			IC50 [3]: > 50.1 µM
Cc1nn(C)c(C)c1CN(C)c1nc(C2CC2)nc2c(C)nn(C)c12		5.529	2.65	
CCOc1ccc2nc(NC(=O)c3c(C(=O)O)cnn3C)sc2c1		5.956	1.47	
CCc1c(C)nc2cc(-c3nccn3C)nn2c1N1CCCC(CO)C1 (stereo not given)		5.187	5.95	
Cc1nc2cc(-c3nccn3C)nn2c(N2CCCC2)c1C		< 5	9.95	
CCC(CC)C(=O)N1CCCc2c(cnn2C)C1		5.338	5.15	
Cn1nccc1CCC(=O)N1CCCC(c2cnccn2)C1 (stereo not given)	> 100 µM			IC50 (Tryptophan--tRNA ligase): > 195 µM
Cn1ccnc(Nc2ccc3c(c2)CCN3C(=O)c2ccoc2)c1=O		5.166 and 5.523		
CCc1ncc2c(n1)CN(CC1CCCCO1)CC2 (stereo not given)	> 100 µM			IC50 (Lysine--tRNA ligase): > 50.1 µM
Cc1cc(N(Cc2cccs2)C2CC2)n2nc(C(F)(F)F)nc2n1		6.155 and 6.458		
Cc1ccc(F)c2c1N(C(=O)Cc1c(C)nn(C)c1C)CCC2		5.021	8.03	
CCCS(=O)(=O)NCc1ncc(C)c(OC)c1C		5.88	1.37	
O=C(CNC(=O)c1ccc(Cl)cc1)Nc1nccs1		5.243	3.56	

Structure (SMILES)	IC50 [1]	pIC50 (Wolbachia pipientis)	IC50 (Wolbachia pipientis) [µM]	further results
COc1cc(CNC(=O)c2csc(Br)c2)ccn1		5.03	5.94	
Cc1nc(N2CCC3(CCOC3)C2)c2cc[nH]c2n1 (stereo not given)		5.537	2.38	
O=C(c1ccccc1)C1CCN(c2cncc(-n3cccn3)n2)CC1	29 µM and 33.8 µM			IC50 (Leishmania donovani): > 50.1 µM
c1cc(CN2CCc3cncnc3C2)c2c(c1)OCCO2		5.26	> 10	
O=C(Nc1ccnc(OC2CCOC2)c1)c1ccccc1Cl (stereo not given)		5.461 and 5.05		
CSc1ccc(NCc2csc(C)n2)cc1F		5.126	5.53	
Cc1ccccc1C1CN(c2cnn(C)c(=O)c2Cl)CCO1 (stereo not given)		5.107	7.69	
CCn1c(CNC(=O)Nc2nc(C)c(C)o2)nc2ccccc21		5.724	1.91	
Cc1ncc(CN(C)Cn2nc(-c3ccccc3)oc2=O)s1		5.124	5	
Cc1cccc(N2CCN(C(=O)c3c(C)nn(C)c3C)CC2)c1C		5.626	2.32	
CNS(=O)(=O)c1csc(C(=O)N(C)Cc2ccccc2C)c1	> 100 µM			IC50 (Tryptophan--tRNA ligase): > 195 µM
COc1ccc(C(C#N)NC(=O)Cc2ccc(F)c(F)c2)c(OC)c1 (stereo not given)		5.528	3	
O=C(Nc1ccccn1)NC(CCCO)c1ccccc1 (stereo not given)		< 5	6.17	
Cn1cc(NC(=O)c2cc[nH]n2)cc(Cl)c1=O	> 100 µM			IC50 [4]: > 50.1 µM; IC50 (Lysine--tRNA ligase): > 50.1 µM; IC50 [5]: > 50.1 µM
CC(=O)NC(C)c1ccc(OCC2CC2)c(F)c1 (stereo not given)		5.914	1.47	
CC(C)(C)Nc1nc(-c2cccnc2)c(-c2ccnc(NCCO)n2)s1	> 100 µM			IC50 [3]: 5.53 µM
CC(C)[C@@H]1CN(C2CCN(Cc3ccccc3)CC2)C[C@H]1NS(C)(=O)=O		5.381	3.75	
CCCOc1ccc(Cl)cc1CNc1ncnc2oc(C)nc12	12.3 µM and 19.8 µM			IC50 [4]: > 50.1 µM; IC50 [3]: 12.6 µM; IC50 [5]: > 50.1 µM
COCc1noc(-c2ccc(N(C)Cc3ncccc3C)nc2)n1		5.66	3.11	

Structure (SMILES)	IC50 [1]	pIC50 (Wolbachia pipientis)	IC50 (Wolbachia pipientis) [µM]	further results
Cc1cnc2c(C(=O)N3CCCC(OCc4ccccn4)C3)cnn2c1 (stereo not given)	> 100 µM			IC50 [2]: > 30.2 µM
NC(=O)c1ccccc1-n1cc(-c2cccc(C(=O)O)c2)cn1	> 100 µM			IC50 (Histidine--tRNA ligase): 88.1 µM and > 100 µM
COCCNc1nc2c(c(NCC3CCOC3)n1)CCNCC2 (stereo not given)	> 100 µM			IC50 (Leishmania donovani): > 50.1 µM
COc1cnc(N2CC(N3CCOCC3)C2)nc1-c1ccnn1C	52.6 µM and 31.8 µM			IC50 (ClpP1P2): > 100 µM; IC50 [2]: > 50.1 µM; IC50 (Histidine--tRNA ligase): 5.05 µM and 10.5 µM
CCCOC(C)Cn1ccc2[nH]c(=O)c(C#N)cc2c1=O (stereo not given)	28.5 µM and 11.6 µM			IC50 (ClpP1P2): > 100 µM; IC50 (Lysine--tRNA ligase): > 50.1 µM
CC(C)c1cc(N2CCC(N)CC2)n2nccc2n1	> 100 µM			IC50 (Leishmania donovani): > 50.1 µM
CC(C)c1cc(CN2CCC(CC(=O)O)CC2)no1	12.3 µM and 7.76 µM			IC50 (Tryptophan--tRNA ligase): > 195 µM
COCc1ccc(CNc2cncc(-n3cccn3)n2)cc1	> 57.5 µM and 18.9 µM			IC50 (ClpP1P2): > 100 µM
NS(=O)(=O)Cc1ccc(CNc2cncc(-n3cccn3)n2)cc1	19.4 µM and > 100 µM			IC50 (ClpP1P2): > 100 µM
COC(=O)CNC(=O)c1sc(-c2ccc(Cl)s2)nc1C	22.3 µM and > 100 µM			IC50 (ClpP1P2): > 100 µM
Cc1nc(-c2ccc(Cl)s2)sc1C(=O)NC(C)(C)C(N)=O	> 100 µM and 21.1 µM			IC50 (ClpP1P2): > 100 µM
Cc1nc(-c2ccc(Cl)s2)sc1C(=O)NCCCC(N)=O	> 100 µM and 15.1 µM			IC50 (ClpP1P2): > 100 µM
COc1ccccc1N1CCC(CNS(=O)(=O)c2cccc(C#N)c2)C1 (stereo not given)	49.7 µM and > 100 µM			IC50 [2]: > 30.2 µM
Cc1ccc(C(=O)N(C)Cc2cc(C)on2)cn1	> 100 µM			IC50 (ClpP1P2): > 100 µM
CCOc1cc(/C=C/c2ncc(C(=O)O)s2)cc(Br)c1O	> 100 µM and 24.3 µM			IC50 [2]: > 30.2 µM
Cc1nc(C)n(C2CCCN(C(=O)c3nc(C)n4ccccc34)C2)n1 (stereo not given)	8.78 µM and 12.7 µM			IC50 (ClpP1P2): > 100 µM
Cc1ncc2c(n1)CN(CCCc1nc3ccccc3o1)CC2	> 100 µM			IC50 (Lysine--tRNA ligase): > 50.1 µM
O=C(O)C(F)(F)F.O=C(O)c1c(-c2cccnc2)ncc2c1CCN(CC1CCOC1)C2 (stereo not given)		< 5	7.49	
